Test results published in publication PMC3723537, “Structural Basis for Native Agonist and Synthetic Inhibitor Recognition by the Pseudomonas aeruginosa Quorum Sensing Regulator PqsR (MvfR)” (PLoS Pathogens, 2013).
“Also recorded” adds a separate entry of the source. Like-named read-outs stand apart in the source and are kept apart here.

Legend:
PqsR [1] = target: T1, PqsR (Pseudomonas aeruginosa, UniProt Q9I4X0); experiment: cell-based; parameters: assayed for their agonist and antagonist activities in a whole P. aeruginosa bacterial cell assay; endogenous in cells; host or cells: P. aeruginosa PAO1 wild type, ΔpqsA or ΔpqsAH strains carrying a chromosomal (mini)CTX::pqsA'-lux fusion; conditions: for Agonist activity on PqsR (in words): pqsA'-lux reporter
T1 sequence (Q9I4X0 1-332): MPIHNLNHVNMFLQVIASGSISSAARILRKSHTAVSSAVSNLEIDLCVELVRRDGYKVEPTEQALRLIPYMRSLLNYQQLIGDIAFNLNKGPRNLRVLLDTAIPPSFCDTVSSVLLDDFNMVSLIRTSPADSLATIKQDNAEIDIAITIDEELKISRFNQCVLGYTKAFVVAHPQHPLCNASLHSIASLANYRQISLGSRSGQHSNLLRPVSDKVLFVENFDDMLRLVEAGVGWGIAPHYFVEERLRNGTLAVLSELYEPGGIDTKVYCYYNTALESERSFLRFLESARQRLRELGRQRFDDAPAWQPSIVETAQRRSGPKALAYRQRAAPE

PqsR [2] = target: T1, PqsR; experiment: cell-based; parameters: assayed for their agonist and antagonist activities in a whole P. aeruginosa bacterial cell assay; endogenous in cells; host or cells: P. aeruginosa PAO1 wild type, ΔpqsA or ΔpqsAH strains carrying a chromosomal (mini)CTX::pqsA'-lux fusion; conditions: for IC50: Figure 6 (QZNs), P. aeruginosa wild type strain with miniCTX::pqsA'-lux fusion, read-out: Antagonist IC50±SD; for Antagonist activity on PqsR (in words): pqsA'-lux reporter
P. aeruginosa = experiment: Bacterial growth in the reporter assays; format: cell-based, Pseudomonas aeruginosa
Description: The impact of the AQs and QZNs on PqsR-dependent gene expression in P. aeruginosa was evaluated using lux-based pqsA, lecA and phzA1 promoter fusions (Table S1) in 96-well microtiter plates as described before,[23]. Bioluminescence and bacterial growth were quantified using a combined luminometer-spectrometer (Tecan GENios Pro). Where required, AQs or QZNs were added to reporter strains and EC50 or IC50 values were extracted from the sigmoidal dose–response curves obtained using Prism2 (Graphpad, San Diego, USA).

[3] = MeOH stock at a workable concentration
AQ biosynthesis = test system: AQ biosynthesis; parameters: method as in PMID 17941706; conditions: cited from earlier work
PqsR [4] = target: T1, PqsR; experiment: cell-based; parameters: assayed for their agonist and antagonist activities in a whole P. aeruginosa bacterial cell assay; endogenous in cells; host or cells: P. aeruginosa PAO1 wild type, ΔpqsA or ΔpqsAH strains carrying a chromosomal (mini)CTX::pqsA'-lux fusion; conditions: Figure 2 (AQs); P. aeruginosa ΔpqsAH CTX::pqsA'-lux strain; read-out: Agonist EC50 ±SD
PqsR [5] = target: T1, PqsR; parameters: assayed for their agonist and antagonist activities in a whole P. aeruginosa bacterial cell assay; endogenous in cells; host or cells: P. aeruginosa PAO1 wild type, ΔpqsA or ΔpqsAH strains carrying a chromosomal (mini)CTX::pqsA'-lux fusion; method as in PMID 17922753; conditions: cited from earlier work; for Activation of PqsR (in words): dependence on alkyl chain length
PqsR Leu207Glu = PqsR Leu207Glu (Pseudomonas aeruginosa, UniProt Q9I4X0, L207E); experiment: Response of PqsR-6His ligand binding site variants to PQS and HHQ, pqsA'-lux in ΔpqsA ΔpqsH ΔpqsR strain; format: cell-based; conditions: Leu207Glu mutation; co-inducer 40 µM
[6] = Figure 6 (QZNs), P. aeruginosa ΔpqsA miniCTX::pqsA'-lux strain, read-out: Agonist EC50±SD
[7] = Figure 2 (AQs), P. aeruginosa ΔpqsA CTX::pqsA'-lux strain, read-out: Agonist EC50 ±SD

Compound: CCCCCCCCCc1nc2ccccc2c(=O)n1N [compound 20]
- Agonist activity on PqsR (in words) (PqsR [1]): None of these compounds were agonists
- IC50 (PqsR [2]): 77.2 ± 1 µM

Compound: CCCCCCCCCc1nc2cc(Cl)ccc2c(=O)n1CCCN [compound 38]
- Growth inhibition (P. aeruginosa): exhibited growth inhibition
- melting point: 82 to 95 °C

Compound: CCCCCCCCCc1nc2ncccc2c(=O)n1N [compound 47]
- Antagonist activity on PqsR (in words) (PqsR [2]): complete loss of activity

Compound: CCCCCCCCCc1nc2cc(Cl)ccc2c(=O)n1OC [compound 15]
- EC50 (PqsR [1]; [6]): 37.3 ± 6.5 µM

Compound: NCCn1c(CCCc2ccccc2)nc2cc(Cl)ccc2c1=O [compound 39]
- Growth inhibition (P. aeruginosa): exhibited growth inhibition
- IC50 (PqsR [2]): 79.2 ± 2.7 µM

Compound: CCCCCCCCCc1nc2ccccc2c(=O)[nH]1 [C9-QZN]
- Agonist activity on PqsR (in words) (PqsR [1]): devoid of agonist or antagonist activity
- Antagonist activity on PqsR (in words) (PqsR [2]): devoid of agonist or antagonist activity

Compound: CCCCCCCCCCCc1nc2ccccc2c(=O)n1N [compound 21]
- Agonist activity on PqsR (in words) (PqsR [1]): None of these compounds were agonists
- IC50 (PqsR [2]): 210 ± 77 µM

Compound: CCCCCCCCCc1nc2cc(F)c(F)cc2c(=O)n1OC [compound 17]
- EC50 (PqsR [1]; [6]): 53.6 ± 13.7 µM
- Reduction of agonist potency relative to 3-OMe-7F-C9-QZN (PqsR [1]; second fluorine introduced): ~25 fold

Compound: CCCCCCCc1nc2ccccc2c(=O)n1O [compound 9]
- EC50 (PqsR [1]; [6]): 54 ± 6.6 µM
- Agonist activity on PqsR (in words) (PqsR [1]): partial agonists

Compound: CCCCCCCCCc1nc2cc(F)c(F)cc2c(=O)n1N [compound 26]
- IC50 (PqsR [2]): 1.2 ± 0.4 µM

Compound: CCCCCC(C)CCc1nc2ccccc2c(=O)n1N (stereo not shown) [compound 29]
- Antagonist activity on PqsR (in words) (PqsR [2]): all inactive

Compound: CCCCCCCc1nc2ccccc2c(=O)[nH]1 [C7-QZN]
- Agonist activity on PqsR (in words) (PqsR [1]): devoid of agonist or antagonist activity
- Antagonist activity on PqsR (in words) (PqsR [2]): devoid of agonist or antagonist activity

Compound: Nn1c(CCCC2CCCCC2)nc2ccccc2c1=O [compound 46]
- Solubility (in words) [3]: barely soluble

Compound: Nc1cc(Cl)ccc1C(=O)O [4-CABA, 2-amino-4-chorobenzoic acid]
- Concentrations required to inhibit AQ production (AQ biosynthesis): millimolar range

Compound: CCCCCCCCCc1nc2ccccc2c(=O)n1OC [compound 14]
- Agonist activity on PqsR (in words) (PqsR [1]): inactive

Compound: CCCCCCCCCc1nc2cc(F)ccc2c(=O)n1O [compound 12]
- EC50 (PqsR [1]; [6]): 21 ± 5.5 µM
- Agonist activity on PqsR (in words) (PqsR [1]): totally devoid of agonist activity

Compound: CCCCOCCOCc1nc2ccccc2c(=O)n1N [compound 32]
- Antagonist activity on PqsR (in words) (PqsR [2]): all inactive

Compound: CCCCCCCCCc1nc2cc(OC)c(OC)cc2c(=O)n1N [compound 28]
- Antagonist activity on PqsR (in words) (PqsR [2]): inactive

Compound: CCCCCCCCCc1nc2cc(F)ccc2c(=O)n1N [compound 25]
- IC50 (PqsR [2]): 3.9 ± 1.5 µM

Compound: CC(C)CCCCCCc1nc2ccccc2c(=O)n1N [compound 30]
- Antagonist activity on PqsR (in words) (PqsR [2]): all inactive

Compound: CCCCCCCCCc1cc(O)c2ccccc2n1 [compound 3, 2-nonyl-4-hydroxyquinoline]
- EC50 (PqsR [1]; [7]): 0.4 ± 0.1 µM
- EC50 (PqsR [4]): 2.5 ± 1.5 µM
- Activation of PqsR (in words) (PqsR [5]): highly active

Compound: CCCCCCCCCc1nc2cc(Cl)ccc2c(=O)n1CCN [compound 37]
- Growth inhibition (P. aeruginosa): exhibited growth inhibition
- melting point: 69 to 72 °C

Compound: CCCCCCCCCc1nc2ccc(Cl)cc2c(=O)n1N [compound 22]
- Antagonist activity on PqsR (in words) (PqsR [2]): complete loss of antagonist activity

Compound: CCCCCCCCCc1[nH]c2ccccc2c(=O)c1O [compound 4, 2-nonyl-3-hydroxy-4(1H)-quinolone]
- EC50 (PqsR [1]; [7]): 1.1 ± 0.5 µM
- EC50 (PqsR [4]): 9.1 ± 11.2 µM
- Activation of PqsR (in words) (PqsR [5]): highly active

Compound: CCCCCCCCCc1nc2cc(Cl)ccc2c(=O)n1O [compound 11]
- EC50 (PqsR [1]; [6]): 12.7 ± 7.8 µM

Compound: CCCCCCCCCc1nc2ccc(Cl)cc2c(=O)n1CCN [compound 36]
- Growth inhibition (P. aeruginosa): exhibited growth inhibition
- melting point: 72 to 74 °C

Compound: CCCCCCCCCc1nc2cc(C(F)(F)F)ccc2c(=O)n1N [compound 27]
- Antagonist activity on PqsR (in words) (PqsR [2]): complete loss of activity

Compound: CCCCCCCc1[nH]c2ccccc2c(=O)c1N [5a]
- EC50 (PqsR [1]; [7]): 0.4 ± 0.15 µM

Compound: CCCCCCCCCc1nc2ccccc2c(=O)n1CCN [compound 35]
- Growth inhibition (P. aeruginosa): exhibited growth inhibition
- melting point: 77 to 81 °C
- Antagonist activity on PqsR (in words) (PqsR [2]): inactive or weak antagonists

Compound: CCCCCCCCCc1nc2cc(F)ccc2c(=O)n1OC [compound 16]
- EC50 (PqsR [1]; [6]): 2.2 µM

Compound: CCCCCCCc1[nH]c2cc(Cl)ccc2c(=O)c1O [compound 5]
- EC50 (PqsR [1]; [7]): 0.014 ± 0.005 µM
- Agonist potency relative to PQS (PqsR [1]; in P. aeruginosa, from Figure 2 EC50s): ~135 times

Compound: CCCCCCCCCc1nc2cc(F)ccc2c(=O)[nH]1 [7F-C9-QZN]
- Agonist activity on PqsR (in words) (PqsR [1]): devoid of agonist or antagonist activity
- Agonist activity on PqsR (in words) (PqsR [1]; listed as 8): partial agonists
- Antagonist activity on PqsR (in words) (PqsR [2]): devoid of agonist or antagonist activity

Compound: CCCCCCCc1cc(O)c2ccccc2n1 [compound 2, 2-heptyl-4-hydroxyquinoline]
- Response, % of pqsA promoter activity with respect to strain expressing PqsR-6His (PqsR Leu207Glu): 5%
- EC50 (PqsR [1]; [7]): 0.8 ± 0.3 µM
- EC50 (PqsR [4]): 16.4 ± 2.6 µM
- EC50 for PqsR-dependent activation of pqsA (PqsR [5]; whole P. aeruginosa cell assays): low micromolar range

Compound: Nn1c(Cc2ccc(-c3ccccc3)cc2)nc2cc(Cl)ccc2c1=O [compound 44]
- Solubility (in words) [3]: did not dissolve in MeOH at a workable concentration

Compound: CCCCCCCc1nc2ccccc2c(=O)n1OC [compound 13]
- Agonist activity on PqsR (in words) (PqsR [1]): inactive; also recorded: totally devoid of agonist activity

Compound: Nn1c(CCc2c[nH]c3ccccc23)nc2cc(Cl)ccc2c1=O [compound 43]
- Solubility (in words) [3]: did not dissolve in MeOH at a workable concentration

Compound: Nn1c(CCCc2ccccc2)nc2cc(Cl)ccc2c1=O [compound 41]
- IC50 (PqsR [2]): 39.6 ± 11 µM

Compound: CCCCCCCCCc1nc2ccccc2c(=O)n1NC(C)=O [compound 33]
- Antagonist activity on PqsR (in words) (PqsR [2]): inactive or weak antagonists

Compound: CCCCCCCc1nc2ccccc2c(=O)n1N [compound 19]
- Agonist activity on PqsR (in words) (PqsR [1]): None of these compounds were agonists
- IC50 (PqsR [2]): 54 ± 15.5 µM

Compound: CCCCCCCCCc1nc2ccccc2c(=O)n1O [compound 10]
- EC50 (PqsR [1]; [6]): 30 ± 3.8 µM
